# Data published in ChEMBL document CHEMBL5252541, “Repurposing antipsychotic drugs into antifungal agents: Synergistic combinations of azoles and bromperidol derivatives in the treatment of various fungal infections” (Eur J Med Chem, 2017).
# Tests used:
# [1] = system: Candida albicans; assay: Synergistic antifungal activity against Candida albicans ATCC 64124 assessed as itraconazole MIC measured after 48 hrs by checkboard based microplate reader analysis; assay type: functional
# [2] = system: Candida albicans; assay: Antifungal activity against Candida albicans ATCC 64124 measured after 48 hrs by broth microdilution analysis; assay type: functional
# [3] = system: Candida albicans; assay: Synergistic antifungal activity against Candida albicans ATCC 10231 assessed as itraconazole MIC measured after 48 hrs by checkboard based microplate reader analysis; assay type: functional
# [4] = system: Candida albicans; assay: Antifungal activity against Candida albicans ATCC 10231 measured after 48 hrs by broth microdilution analysis; assay type: functional
# [5] = system: Candida albicans; assay: Synergistic antifungal activity against Candida albicans ATCC 64124 assessed as compound MIC measured after 48 hrs in presence of posaconazole by checkboard based microplate reader analysis; assay type: functional
# [6] = system: Candida albicans; assay: Additive antifungal activity against Candida albicans ATCC MYA-2876 assessed as fractional inhibitory concentration index measured for 72 hrs in presence of posaconazole; assay type: functional
# [7] = system: Candida albicans; assay: Synergistic antifungal activity against Candida albicans ATCC 64124 assessed as compound MIC measured after 48 hrs in presence of fluconazole by checkboard based microplate reader analysis; assay type: functional
# [8] = system: Candida albicans; assay: Partial synergistic antifungal activity against Candida albicans ATCC 64124 assessed as fractional inhibitory concentration index measured for 72 hrs in presence of ketoconazole; assay type: functional
# [9] = system: Candida albicans; assay: Synergistic antifungal activity against Candida albicans ATCC 10231 assessed as compound MIC measured after 48 hrs in presence of ketoconazole by checkboard based microplate reader analysis; assay type: functional
# [10] = system: Candida albicans; assay: Synergistic antifungal activity against Candida albicans ATCC 64124 assessed as compound MIC measured after 48 hrs in presence of voriconazole by checkboard based microplate reader analysis; assay type: functional
# [11] = system: Candida albicans; assay: Synergistic antifungal activity against Candida albicans ATCC 10231 assessed as compound MIC measured after 48 hrs in presence of voriconazole by checkboard based microplate reader analysis; assay type: functional
# [12] = system: Candida albicans; assay: Antifungal activity against Candida albicans ATCC MYA-2310 measured after 48 hrs by broth microdilution analysis; assay type: functional
# [13] = system: Candida albicans; assay: Antifungal activity against Candida albicans ATCC MYA-2876 measured after 48 hrs by broth microdilution analysis; assay type: functional
# [14] = system: Nakaseomyces glabratus; assay: Synergistic antifungal activity against Candida glabrata ATCC 2001 assessed as fractional inhibitory concentration index measured for 72 hrs in presence of posaconazole; assay type: functional
# [15] = system: Candida albicans; assay: Synergistic antifungal activity against Candida albicans ATCC 10231 assessed as compound MIC measured after 48 hrs in presence of fluconazole by checkboard based microplate reader analysis; assay type: functional
# [16] = system: Nakaseomyces glabratus; assay: Antifungal activity against Candida glabrata ATCC 2001 measured after 48 hrs by broth microdilution analysis; assay type: functional
# [17] = system: Candida albicans; assay: Partial synergistic antifungal activity against Candida albicans ATCC 10231 assessed as fractional inhibitory concentration index measured for 72 hrs in presence of ketoconazole; assay type: functional
# [18] = system: Candida albicans; assay: Additive antifungal activity against Candida albicans ATCC 10231 assessed as fractional inhibitory concentration index measured for 72 hrs in presence of fluconazole; assay type: functional
# [19] = system: Candida albicans; assay: Antifungal activity against Candida albicans ATCC MYA-1237 measured after 48 hrs by broth microdilution analysis; assay type: functional
# [20] = system: Candida albicans; assay: Additive antifungal activity against Candida albicans ATCC 64124 assessed as fractional inhibitory concentration index measured for 72 hrs in presence of itraconazole; assay type: functional
# [21] = system: Candida albicans; assay: Synergistic antifungal activity against Candida albicans ATCC 10231 assessed as compound MIC measured after 48 hrs in presence of posaconazole by checkboard based microplate reader analysis; assay type: functional
# [22] = system: Candida albicans; assay: Additive antifungal activity against Candida albicans ATCC 10231 assessed as fractional inhibitory concentration index measured for 72 hrs in presence of itraconazole; assay type: functional
# [23] = system: Candida albicans; assay: Antifungal activity against Candida albicans ATCC 90819 measured after 48 hrs by broth microdilution analysis; assay type: functional
# [24] = system: Candida albicans; assay: Additive antifungal activity against Candida albicans MYA-1003 assessed as fractional inhibitory concentration index measured for 72 hrs in presence of voriconazole
# [25] = system: Nakaseomyces glabratus; assay: Additive antifungal activity against Candida glabrata ATCC 2001 assessed as fractional inhibitory concentration index measured for 72 hrs in presence of posaconazole; assay type: functional
# [26] = system: Candida albicans; assay: Synergistic antifungal activity against Candida albicans ATCC 10231 assessed as compound MIC measured after 48 hrs in presence of itraconazole by checkboard based microplate reader analysis; assay type: functional
# [27] = system: Candida albicans; assay: Antifungal activity against Candida albicans ATCC MYA-1003 measured after 48 hrs by broth microdilution analysis; assay type: functional
# [28] = system: Candida albicans; assay: Additive antifungal activity against Candida albicans ATCC MYA-2310 assessed as fractional inhibitory concentration index measured for 72 hrs in presence of posaconazole; assay type: functional
# [29] = system: Candida albicans; assay: Additive antifungal activity against Candida albicans ATCC MYA-1237 assessed as fractional inhibitory concentration index measured for 72 hrs in presence of posaconazole; assay type: functional
# [30] = system: Candida albicans; assay: Synergistic antifungal activity against Candida albicans ATCC 64124 assessed as compound MIC measured after 48 hrs in presence of itraconazole by checkboard based microplate reader analysis; assay type: functional
# [31] = system: Aspergillus terreus; assay: Antifungal activity against Aspergillus terreus ATCC MYA-3633 measured after 48 hrs by broth microdilution analysis; assay type: functional
# [32] = system: Candida albicans; assay: Additive antifungal activity against Candida albicans ATCC MYA-2310 assessed as fractional inhibitory concentration index measured for 72 hrs in presence of voriconazole; assay type: functional
# [33] = system: Candida albicans; assay: Additive antifungal activity against Candida albicans ATCC 90819 assessed as fractional inhibitory concentration index measured for 72 hrs in presence of posaconazole; assay type: functional
# [34] = system: Candida albicans; assay: Additive antifungal activity against Candida albicans ATCC MYA-2876 assessed as fractional inhibitory concentration index measured for 72 hrs in presence of voriconazole; assay type: functional
# [35] = system: Aspergillus terreus; assay: Additive antifungal activity against Aspergillus terreus ATCC MYA-3633 assessed as fractional inhibitory concentration index measured for 72 hrs in presence of voriconazole; assay type: functional
# [36] = system: Candida albicans; assay: Additive antifungal activity against Candida albicans ATCC 64124 assessed as fractional inhibitory concentration index measured for 72 hrs in presence of fluconazole; assay type: functional
# [37] = system: Candida albicans; assay: Additive antifungal activity against Candida albicans ATCC 90819 assessed as fractional inhibitory concentration index measured for 72 hrs in presence of voriconazole; assay type: functional
# [38] = system: Candida albicans; assay: Additive antifungal activity against Candida albicans ATCC MYA-1237 assessed as fractional inhibitory concentration index measured for 72 hrs in presence of voriconazole; assay type: functional
# [39] = system: Candida albicans; assay: Synergistic antifungal activity against Candida albicans ATCC 64124 assessed as compound MIC measured after 48 hrs in presence of ketoconazole by checkboard based microplate reader analysis; assay type: functional
# [40] = system: Nakaseomyces glabratus; assay: Additive antifungal activity against Candida glabrata ATCC 2001 assessed as fractional inhibitory concentration index measured for 72 hrs in presence of voriconazole; assay type: functional
# [41] = system: Candida albicans; assay: Partial synergistic antifungal activity against Candida albicans ATCC 64124 assessed as fractional inhibitory concentration index measured for 72 hrs in presence of voriconazole; assay type: functional
# [42] = system: Candida albicans; assay: Synergistic antifungal activity against Candida albicans ATCC 10231 assessed as fluconazole MIC measured after 48 hrs by checkboard based microplate reader analysis; assay type: functional
# [43] = system: Candida albicans; assay: Synergistic antifungal activity against Candida albicans ATCC 64124 assessed as fractional inhibitory concentration index measured for 72 hrs in presence of posaconazole; assay type: functional
# [44] = system: Candida albicans; assay: Partial synergistic antifungal activity against Candida albicans ATCC 10231 assessed as fractional inhibitory concentration index measured for 72 hrs in presence of posaconazole; assay type: functional
# [45] = system: Candida albicans; assay: Additive antifungal activity against Candida albicans ATCC 64124 assessed as fractional inhibitory concentration index measured for 72 hrs in presence of ketoconazole; assay type: functional
# [46] = system: Aspergillus terreus; assay: Additive antifungal activity against Aspergillus terreus ATCC MYA-3633 assessed as fractional inhibitory concentration index measured for 72 hrs in presence of posaconazole; assay type: functional
# [47] = system: Candida albicans; assay: Additive antifungal activity against Candida albicans MYA-1003 assessed as fractional inhibitory concentration index measured for 72 hrs in presence of posaconazole
# [48] = system: Candida albicans; assay: Partial synergistic antifungal activity against Candida albicans ATCC 10231 assessed as fractional inhibitory concentration index measured for 72 hrs in presence of voriconazole; assay type: functional
# [49] = system: Candida albicans; assay: Synergistic antifungal activity against Candida albicans ATCC 64124 assessed as ketoconazole MIC measured after 48 hrs by checkboard based microplate reader analysis; assay type: functional
# [50] = system: Candida albicans; assay: Additive antifungal activity against Candida albicans ATCC 10231 assessed as fractional inhibitory concentration index measured for 72 hrs in presence of ketoconazole; assay type: functional
# [51] = system: Candida albicans; assay: Synergistic antifungal activity against Candida albicans ATCC 10231 assessed as ketoconazole MIC measured after 48 hrs by checkboard based microplate reader analysis; assay type: functional
# [52] = system: Candida albicans; assay: Synergistic antifungal activity against Candida albicans ATCC 64124 assessed as fluconazole MIC measured after 48 hrs by checkboard based microplate reader analysis; assay type: functional
structure (smiles),measurement,setting,value
CCC(C)n1ncn(-c2ccc(N3CCN(c4ccc(OCC5COC(Cn6cncn6)(c6ccc(Cl)cc6Cl)O5)cc4)CC3)cc2)c1=O (stereo not drawn) [ITRACONAZOLE],MIC,[1],> 32 mg/L
same,MIC,[2],> 32 mg/L
same,MIC,[3],0.25 mg/L
same,MIC,[4],1 mg/L
O=C(CCCN1CCC(O)(c2ccc(Br)cc2)CC1)c1ccc(Br)cc1,MIC,[5],16 mg/L
same,fractional inhibitory concentration index (FICI),[6],2
same,MIC,[7],> 64 mg/L
same,fractional inhibitory concentration index (FICI),[8],0.52
same,MIC,[9],1 mg/L
same,MIC,[10],32 mg/L
same,MIC,[11],32 mg/L
same,MIC,[12],> 64 mg/L
same,MIC,[13],> 64 mg/L
same,fractional inhibitory concentration index (FICI),[14],0.38
same,MIC,[15],> 64 mg/L
same,MIC,[16],> 64 mg/L
same,fractional inhibitory concentration index (FICI),[17],0.52
same,fractional inhibitory concentration index (FICI),[18],2
same,MIC,[19],> 64 mg/L
same,fractional inhibitory concentration index (FICI),[20],2
same,MIC,[21],32 mg/L
same,fractional inhibitory concentration index (FICI),[22],1.5
same,MIC,[23],> 64 mg/L
same,fractional inhibitory concentration index (FICI),[24],2
same,fractional inhibitory concentration index (FICI),[25],0.38
same,MIC,[2],> 64 mg/L
same,MIC,[26],64 mg/L
same,MIC,[27],> 64 mg/L
same,fractional inhibitory concentration index (FICI),[28],2
same,fractional inhibitory concentration index (FICI),[29],2
same,MIC,[30],> 64 mg/L
same,MIC,[31],> 64 mg/L
same,fractional inhibitory concentration index (FICI),[32],2
same,fractional inhibitory concentration index (FICI),[33],2
same,fractional inhibitory concentration index (FICI),[34],2
same,fractional inhibitory concentration index (FICI),[35],2
same,fractional inhibitory concentration index (FICI),[36],2
same,fractional inhibitory concentration index (FICI),[37],2
same,fractional inhibitory concentration index (FICI),[38],2
same,MIC,[39],1 mg/L
same,fractional inhibitory concentration index (FICI),[40],2
same,fractional inhibitory concentration index (FICI),[41],0.63
same,MIC,[4],> 64 mg/L
same,MIC,[42],> 32 mg/L
O=C(CCCN1CCC(O)(c2ccc(Br)cc2)CC1)c1ccccc1,fractional inhibitory concentration index (FICI),[43],0.19
same,MIC,[5],8 mg/L
same,fractional inhibitory concentration index (FICI),[6],2
same,MIC,[7],> 64 mg/L
same,MIC,[9],> 64 mg/L
same,MIC,[10],32 mg/L
same,MIC,[11],8 mg/L
same,MIC,[12],> 64 mg/L
same,MIC,[13],> 64 mg/L
same,MIC,[15],64 mg/L
same,MIC,[16],> 64 mg/L
same,fractional inhibitory concentration index (FICI),[18],2
same,MIC,[19],> 64 mg/L
same,fractional inhibitory concentration index (FICI),[20],2
same,MIC,[21],16 mg/L
same,fractional inhibitory concentration index (FICI),[22],1.5
same,fractional inhibitory concentration index (FICI),[44],0.75
same,MIC,[23],> 64 mg/L
same,fractional inhibitory concentration index (FICI),[24],1.06
same,fractional inhibitory concentration index (FICI),[25],0.56
same,fractional inhibitory concentration index (FICI),[45],1
same,MIC,[2],> 64 mg/L
same,MIC,[26],64 mg/L
same,MIC,[27],> 64 mg/L
same,fractional inhibitory concentration index (FICI),[28],1.01
same,MIC,[30],> 64 mg/L
same,MIC,[31],> 64 mg/L
same,fractional inhibitory concentration index (FICI),[32],2
same,fractional inhibitory concentration index (FICI),[46],1.25
same,fractional inhibitory concentration index (FICI),[33],1
same,fractional inhibitory concentration index (FICI),[34],2
same,fractional inhibitory concentration index (FICI),[35],2
same,fractional inhibitory concentration index (FICI),[36],2
same,fractional inhibitory concentration index (FICI),[37],1
same,fractional inhibitory concentration index (FICI),[47],1.03
same,MIC,[39],32 mg/L
same,fractional inhibitory concentration index (FICI),[40],1.01
same,fractional inhibitory concentration index (FICI),[41],0.75
same,MIC,[4],> 64 mg/L
same,fractional inhibitory concentration index (FICI),[48],0.63
CC(=O)N1CCN(c2ccc(OCC3COC(Cn4ccnc4)(c4ccc(Cl)cc4Cl)O3)cc2)CC1 (stereo not drawn) [KETOCONAZOLE],MIC,[2],8 mg/L
same,MIC,[49],4 mg/L
same,fractional inhibitory concentration index (FICI),[50],2
same,MIC,[4],1 mg/L
same,MIC,[51],0.5 mg/L
OC(Cn1cncn1)(Cn1cncn1)c1ccc(F)cc1F [FLUCONAZOLE],MIC,[52],> 32 mg/L
same,MIC,[2],> 32 mg/L
same,MIC,[4],> 32 mg/L
same,MIC,[42],> 32 mg/L
